From PMC11013424, “Evaluation of the Lipophilicity of Angularly Condensed Diquino- and Quinonaphthothiazines as Potential Candidates for New Drugs” (Molecules, 2024)

Key:
[1] = design: method as in doi:10.1016/j.molstruc.2023.135700, PMID 30981160, doi:10.1016/j.molstruc.2015.06.046, PMID 25750501, doi:10.1016/j.molstruc.2023.136856; settings: cited from earlier work
[2] = test system: IFNβ expression and IFNβ-dependent downstream genes and proteins; design: method as in doi:10.1016/j.molstruc.2023.135700, PMID 30981160, doi:10.1016/j.molstruc.2015.06.046, PMID 25750501, doi:10.1016/j.molstruc.2023.136856; settings: cited from earlier work
alpha-amylase = test system: alpha-amylase; design: method as in doi:10.1016/j.molstruc.2023.136856; settings: cited from earlier work
[3] = design: method as in doi:10.1016/j.molstruc.2023.136856; settings: cited from earlier work
[4] = design: method as in doi:10.1016/j.molstruc.2023.136856; settings: cited from earlier work; remark: listed apart in the source
alpha-glucosidase = test system: alpha-glucosidase; design: method as in doi:10.1016/j.molstruc.2023.136856; settings: cited from earlier work
[5] = RP-TLC determination of lipophilicity (RM0, logPTLC); settings: for RM0: RP-18 plate, acetone/TRIS buffer pH 7.4, extrapolated to zero acetone; for b (slope) / -b: slope of RM = RM0 + b·C; for b (slope): acetone/TRIS buffer pH 7.4; for LogPTLC: from RM0 by calibration logPTLC = 1.2838 RM0 + 0.2138; for -b: standards I–V;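 as to all read-outs here: silica gel 60 RP-18 F254S plates, TRIS buffer of ionic strength 0.2 M, detection under UV at 254 nm, RF averaged over three or more runs, C in % v/v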
Protocol: RP-TLC was carried out on a silica gel 60 RP-18 F254S 10 cm × 10 cm RP-TLC plate (Merck, Darmstad, Germany). The mobile phase was acetone and an aqueous TRIS (tris(hydroxymethyl)-aminomethane) buffer pH = 7.4 (ionic strength 0.2 M) to meet physiological conditions. […] Angularly condensed diquino- and quinonaphthothiazinethiazines (1–21) and the standards I–V were dissolved in ethanol (2.0 mg/mL). […] Before developing the plates, the chromatographic chambers were saturated with the mobile phase for 0.5 h. After developing the plates and drying in a stream of air, the chromatograms were observed under UV light at λ = 254 nm. At least, three chromatograms were developed for each soluble–solvent combination, and the RF values were averaged. […] The RM0 values were obtained by extrapolation to a zero acetone concentration using the equation RM = RM0 + bC, where C is the concentration (%, v/v) of acetone in the mobile phase.

[6] = design: method as in doi:10.1016/j.molstruc.2023.136856; settings: cited from earlier work; remark: listed apart in the source

| RM0 [5] | b (slope) [5] | Molecule | further results |
| --- | --- | --- | --- |
| 4.49 | −0.0527 | CN1c2ccc3ccccc3c2Sc2cc3ccccc3nc21 [Compound 15] |  |
| 4.29 | −0.0529 | C#CCN1c2ccc3ccccc3c2Sc2cc3ccccc3nc21 [Compound 17] | LogPTLC [5]: 5.76 |
| 3.81 | −0.0484 | c1ccc2nc3c(cc2c1)Sc1ccc2ccccc2c1N3 [Compound 18] |  |
| 4.18 | −0.0538 | CN1c2nc3ccccc3cc2Sc2ccc3ccccc3c21 [Compound 19] | LogPTLC [5]: 5.58 |
| 4.34 | −0.0548 | C=CCN1c2nc3ccccc3cc2Sc2ccc3ccccc3c21 [Compound 20, 14-allylquinonaphthothiazine] |  |
| 4.09 | −0.0507 | C#CCN1c2nc3ccccc3cc2Sc2ccc3ccccc3c21 [Compound 21] |  |
| 0.78 |  | CC(=O)Nc1ccccc1 [Standard I, acetanilide, reference compound] | LogPTLC [5]: 1.21; -b [5]: 0.0162 |

More lines, now with the values behind:

| Molecule | RM0 [5] | b (slope) [5] | further results |
| --- | --- | --- | --- |
| 6-chloro-ethylureidoethyldiquinothiazine |  |  | activity in in vivo models [1]: suppressive and anti-inflammatory activities; inhibition of IFNβ expression and IFNβ-dependent downstream genes and proteins [2]: inhibitory activity |
| c1ccc2nc3c(cc2c1)Sc1c(cnc2ccccc12)N3 [Compound 1, 7H-diquino[3,2-b;3′,4′-e]thiazine] | 3.15 | −0.0383 | alpha-amylase activity inhibition (alpha-amylase): inhibited; ion chelating effect [3]: strong; free radical scavenging effect [4]: strong; alpha-glucosidase activity inhibition (alpha-glucosidase): inhibited; lipid peroxidation effect [6]: strong |
| CN1c2cnc3ccccc3c2Sc2cc3ccccc3nc21 [Compound 2] | 4.14 | −0.0503 |  |
| C=CCN1c2cnc3ccccc3c2Sc2cc3ccccc3nc21 [Compound 3] | 4.30 | −0.058 |  |
| C#CCN1c2cnc3ccccc3c2Sc2cc3ccccc3nc21 [Compound 4] | 3.35 | −0.0383 |  |
| c1ccc2nc3c(cc2c1)Sc1c(ccc2ncccc12)N3 [Compound 5] | 3.72 | −0.0459 |  |
| CN1c2ccc3ncccc3c2Sc2cc3ccccc3nc21 [Compound 6] | 4.24 | −0.0582 |  |
| C=CCN1c2ccc3ncccc3c2Sc2cc3ccccc3nc21 [Compound 7] | 4.46 | −0.0534 |  |
| C#CCN1c2ccc3ncccc3c2Sc2cc3ccccc3nc21 [Compound 8] | 3.96 | −0.0539 | LogPTLC [5]: 5.34 |
| c1ccc2nc3c(cc2c1)Sc1ccc2ncccc2c1N3 [Compound 9] | 3.69 | −0.0498 | alpha-amylase activity inhibition (alpha-amylase): inhibited; ion chelating effect [3]: strong; free radical scavenging effect [4]: strong; alpha-glucosidase activity inhibition (alpha-glucosidase): inhibited; lipid peroxidation effect [6]: strong |
| CN1c2nc3ccccc3cc2Sc2ccc3ncccc3c21 [Compound 10] | 4.37 | −0.0540 |  |
| c1ccc2nc3c(cc2c1)Sc1ccc2cccnc2c1N3 [Compound 11] | 3.48 | −0.0462 | alpha-amylase activity inhibition (alpha-amylase): inhibited; ion chelating effect [3]: strong; free radical scavenging effect [4]: strong; alpha-glucosidase activity inhibition (alpha-glucosidase): inhibited; LogPTLC [5]: 4.72; lipid peroxidation effect [6]: strong |
| CN1c2nc3ccccc3cc2Sc2ccc3cccnc3c21 [Compound 12] | 4.21 | −0.0576 |  |
| C=CCN1c2nc3ccccc3cc2Sc2ccc3cccnc3c21 [Compound 13] |  | −0.0478 |  |
| c1ccc2nc3c(cc2c1)Sc1c(ccc2ccccc12)N3 [Compound 14] | 4.24 | −0.0573 | LogPTLC [5]: 5.69 |
| O=C(O)c1ccccc1 [Standard II, benzoic acid, reference compound] | 1.16 |  | -b [5]: 0.0247 |
| Clc1ccc(C(c2ccc(Cl)cc2)C(Cl)(Cl)Cl)cc1 [Standard V, p,p’-DDT, reference compound] | 4.69 |  | LogPTLC [5]: 6.24; -b [5]: 0.0564 |
